Results on 2 molecules are retold here after patent US10011597B2 (APOGLYX AB, priority 2014, dated 2018).

Structures are written as SMILES.

In general, IC50 refers to the concentration that gives 50% inhibition.

In the assay the target is T1, human aquaporin 9 (Homo sapiens, UniProt O43315).
T1 construct: expressed in transfected cells; host or cells: Human AQP9 cell line with tetracycline added to the medium
T1 sequence (O43315 1-295): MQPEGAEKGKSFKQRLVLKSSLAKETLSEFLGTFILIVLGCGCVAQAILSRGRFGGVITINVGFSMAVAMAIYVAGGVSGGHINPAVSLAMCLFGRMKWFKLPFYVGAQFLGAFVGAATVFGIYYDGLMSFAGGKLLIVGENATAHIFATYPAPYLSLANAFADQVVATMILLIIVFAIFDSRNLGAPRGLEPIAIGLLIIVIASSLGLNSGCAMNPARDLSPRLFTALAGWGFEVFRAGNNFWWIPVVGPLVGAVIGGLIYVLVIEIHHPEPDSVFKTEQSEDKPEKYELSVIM
As to the kind of experiment: Calcein quenching fluostar assay. Format: cell-based. Conditions: inhibition of human aquaporin 9; Human AQP9 cell line, tetracyclin-induced; 25° C. The method, then: Calcein Quenching Fluostar Assay
A calcein quenching fluostar assay was performed in order to investigate the biological activity of the newly synthesized examples 1 to 57. This type of assay is disclosed in J. Biol. Chem., 2011, 286, 44319-44325 and Am. J. Physiol. Renal Physiol. (2010), 298, F224-230.
1) Two days prior to commencement of the assay, seed 10,000 cells/well of 96 well black clear bottom plate (Greiner Poly-lysin plate). A 1:1 mix of Dulbecco's Modified Eagle's Medium:Nutrient Mixture F-12 (DMEM: F12) was obtained from Gibco. Tetracycline stock of 5 mg/ml in 96% ethanol is used. Medium:DMEM/F12/10% Donor Bovine Serum, Human AQP9 cell line+1:270,000 tetracyclin, mouse AQP9 cell line+1:2,700,000 tetracycline.
2) Day of assay: Flick/slam off the medium and add 50 μl/well of loading solution: 5 ml DMEM/F12/10% Donor Bovine Serum, 25 μl Calcein AM—from freshly dissolved aliquot in 50 μl DMSO (VWR #734-1434), and 100 μl Probenecid.
3) Incubate the well for 90 minutes at 37° C.
4) Perform one wash with 75 μl wash buffer.
5) Add 75 μl of an example compound prepared in wash buffer per well.
Example compounds are prepared in 500 μl U bottom PP plates (NUNC). […] Substance in DMSO are added to row A; 180 μl of wash buffer+1% DMSO are added to rows B-H. 90 μl from row A are transferred and mixed with all other wells (up to row G) to make a 3-fold dilution series.
6) Assay in FLUOstar Optima at 25° C. Settings buffer addition at 135 μl seconds, add 75 μl/well, record time course for 30 seconds, add sucrose buffer 3.6 seconds into recording.
7) Normalization to initial in Excel.
8) Fit to “exponential decay” function in GraphPad Prism 5.0, then arrange half live shrinking values according to wells and fit dose-response curves.

As to `CCn1c(SCC(=O)Nc2nnc(-c3ccc(S(C)(=O)=O)cc3)s2)nnc1-c1ccncc1` [Example 56, 2-{[4-ethyl-5-(pyridin-4-yl)-4H-1,2,4-triazol-3-yl]sulfanyl}-N-[5-(4-methanesulfonylphenyl)-1,3,4-thiadiazol-2-yl]acetamid], the IC50 was 0.151 µM.

Turning to `CCn1c(SCC(=O)Nc2nnc(-c3ccc(S(C)(=O)=O)cc3)s2)nnc1-c1cccnc1` [Example 57, 2-{[4-ethyl-5-(pyridin-3-yl)-4H-1,2,4-triazol-3-yl]sulfanyl}-N-[5-(4-methanesulfonylphenyl)-1,3,4-thiadiazol-2-yl]acetamide], the 50% inhibitory concentration (IC50) was 0.133 µM.
